These results are taken from patent EP0971601B1, “DECAFFEINATED MATE EXTRACTS AND THE USE THEREOF” (Sensient Flavors Italy S.R.L., priority 1997, dated 1998).

One assay has as its system rat erythrocytes (RBC). In words: UVB-induced lysis of erythrocytes (turbidimetric determination at 710 nm). It is filed as cell-based. Particulars: Erythrocyte, light or radiation study, 1.5 h, determined at 90 min irradiation, read-out: IC50, UVB-induced hemolysis. How it is done: • Fig.1 - HPLC profile of the decaffeinated aqueous extract of Maté. Chromatographic conditions: reverse phase column LC-18; mobile phase: linear gradient of 100% A (0.0127 N H3PO4/CH3CN/Ethylacetate 96.5'/3/0.5) to 30% B (CH3CN) in 30 min; flow rate: 1 ml/min; detection: UV-DAD 330 nm. […] Experimental conditions: Finnigan LCQ mass spectrometer; reverse phase column LC-18; mobile phase: linear gradient of 100% A (95% ammonium formiate / 5% CH3CN, pH 4.5 with HCOOH) to 30% B (95% CH3CN / 5% ammonium formiate, pH 4.5 with HCOOH) in 30 min; flow rate: 1 ml/min; negative ion detection. […] Values are the means ± S.D. of 5 determinations. • Fig.10 - Protective effect of decaffeinated aqueous extract of Maté on UVB-induced hemolysis. Red blood cells (0.2% suspensions) were exposed to UVB radiation for 210 min in the absence and in presence of different concentrations of decaffeinated aqueous extract of Maté; percentage hemolysis was turbidimetrically determined at 710 nm at 30 min intervals. Values are the means ± S.D. of 5 determinations.
Finally we evaluated in a cellular model (0.2% erythrocyte suspensions) the protective effect of the decaffeinated aqueous extract of Matè on the peroxidative stress induced by UVB exposure (0.4-4 J/cm^2), and monitoring the time-course of hemolysis (turbidimetric determination at 710 nm) at 30 min intervals.

Assay [1] can be described thus: DPPH stable free radical quenching (loss in absorbance at 517 nm). It is filed as biochemical. The settings on record: methanol solution of DPPH, absorbance 517 nm. The text has this: The activity of the extract in quenching the stable free radical DPPH through hydrogen transferring reaction, has been tested by monitoring the loss in absorbance at 517 nm of a methanol solution of DPPH [18] in the presence and the absence of increasing concentrations of Maté extract.
Background: The DPPH test is a chemical assay of radical scavenging.

Values after ≈ are worked out from the molar mass of the structure shown.

One may read the IC50 as the concentration that inhibits the measured activity by half. Consider `O=C(/C=C/c1ccc(O)c(O)c1)O[C@@H]1C[C@](O)(C(=O)O)C[C@@H](O)[C@H]1O` [Chlorogenic acid, 3-O-caffeoyl quinic acid], for which the concentration for half-maximal inhibition (IC50) with rat erythrocytes (RBC) was found to be 3.2 µg/mL (≈ 9.03 µM).

As for `O=C1O[C@H]([C@@H](O)CO)C(O)=C1O` [ascorbic acid], in assay [1], the “IC50, quenching DPPH radical” value stood at 19 µg/mL (≈ 108 µM). Turning to vitamin E, the “IC50, quenching DPPH radical” value in assay [1] stood at 19 µg/mL.
